# Experimental data reported in patent US7518005B2, “Water-soluble anti-dandruff compounds and compositions thereof” (Galaxy Surfactants Limited, priority 2005, dated 2009).
# Legend:
# [1] = test system: M. furfur; assay: Zone of inhibition of M. furfur in SLES, comparison with Undecylenic amido propyl betain (Example 7); type: cell-based
# Description: Undecylenic amido propyl betain is a reported anti-dandruff product, so Undecylenic amidopropyl dimethyl Hydroxy ethyl ammonium undecylenate was compared. Carried out of zone of inhibition of M. furfur against 1, 2%, 5% & 7% Undecylenic amido propyl betain in SLES and compared it with Undecylenic amido propyl dimethyl Hydroxy ethyl ammonium undecylenate
# [2] = test system: M. furfur; assay: Zone of inhibition against M. furfur, comparison with other known anti-dandruff agents (Example 5); type: cell-based
# Description: M. furfur is one of the microorganism, which causes dandruff Method of Analysis: Zone of Inhibition Principle: Larger the zone of inhibition greater is the anti-dandruff activity.
# [3] = Viscosity booster effect in shampoo formulation; conditions: 15% active sodium lauryl ether sulfate, 2% booster
Molecule,Comments ([2]; Concent. 0.5%),Zone of inhibition in mm ([2]; Concent. 0.5%) [mm],Comments ([2]; Concent. 1%),Zone of inhibition in mm ([2]; Concent. 1%) [mm],Comments ([2]; Concent. 1.5%),Zone of inhibition in mm ([2]; Concent. 1.5%) [mm],Comments ([2]; Concent. 2%),Zone of inhibition in mm ([2]; Concent. 2%) [mm],also measured
C=CCCCCCCCCC(=O)NCCC[N+](C)(C)CC(=O)[O-] [Undecylenic amidopropyl betaine],,,,,,,,,Comments ([1]; 1%): Less; Zone of inhibition in mm ([1]; 1%): 3 mm; Comments ([1]; 2%): Less; Zone of inhibition in mm ([1]; 2%): 6 mm; Comments ([1]; 5%): Less; Zone of inhibition in mm ([1]; 5%): 6 mm; Comments ([1]; 7%): Effective; Zone of inhibition in mm ([1]; 7%): 8 mm
C=CCCCCCCCCC(=O)NCCC[N+](C)(C)CCOCCO.[Cl-] [Undecylenic amidopropyl dimethyl Hydroxy ethoxy ethyl ammonium chloride],Less,2,Less,3,Less,6,Effective,8,
C=CCCCCCCCCC(=O)NCCO [Undecylenic mono ethanolamide],Not effective,0,Less,2,Less,4,Less,6,
Cocomonoethanolamide [CMEA],,,,,,,,,Viscosity in cps at 28° C. ([3]; Sodium chloride 0.5%): 55 cps; Viscosity in cps at 28° C. ([3]; Sodium chloride 1.0%): 600 cps; Viscosity in cps at 28° C. ([3]; Sodium chloride 1.5%): 3000 cps; Viscosity in cps at 28° C. ([3]; Sodium chloride 2.0%): 11000 cps; Viscosity in cps at 28° C. ([3]; Sodium chloride 2.5%): 17000 cps
Undecylenic monoethanol amido sulfosuccinate,Not effective,0,Not effective,0,Not effective,0,Not effective,0,
